Results taken from PubChem BioAssay (NCI).
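How tested: cells in 96-well plates exposed to compound for 48 hours at five concentrations. At the GI50, growth is halved. TGI is the concentration that stops growth completely.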

How the values were obtained:
Assay in all cases: NCI-60 cell line screen, 48 h
DLD-1 colon = test system: DLD-1 colon
HOP-18 NSCLC = test system: HOP-18 NSCLC
M19-MEL melanoma = test system: M19-MEL melanoma
MDA-MB-435 = test system: MDA-MB-435
MDA-N = test system: MDA-N
MDA-MB-231 breast = test system: MDA-MB-231 breast
DU-145 prostate = test system: DU-145 prostate
MCF7 breast = test system: MCF7 breast

| Compound | TGI (DLD-1 colon) [µM] | TGI (HOP-18 NSCLC) [µM] | TGI (M19-MEL melanoma) [µM] | GI50 (MDA-MB-435) [µM] | TGI (MDA-MB-435) [µM] | GI50 (MDA-N) [µM] | TGI (MDA-N) [µM] | GI50 (MDA-MB-231 breast) [µM] | TGI (MDA-MB-231 breast) [µM] | GI50 (DU-145 prostate) [µM] | TGI (DU-145 prostate) [µM] | GI50 (MCF7 breast) [µM] | TGI (MCF7 breast) [µM] |
| --- | --- | --- | --- | --- | --- | --- | --- | --- | --- | --- | --- | --- | --- |
| COP1(=O)CC2C(Cl)(Cl)C2(C)C1 (configuration not stated) | > 100 | > 100 | > 100 | – | – | – | – | – | – | – | – | – | – |
| CC(=O)Oc1cc(C)ccc1[C@]1(C)CC[C@H](C)/C1=C\Br | – | – | – | 1.49 | 3.89 | 2.36 | 7.16 | 9.04 | 23.9 | 4.87 | 16.9 | 4.07 | 15.3 |
| CN(C)CCNc1nc2ccccc2c2c1c1c(n2Cc2ccccc2)-c2ccccc2C1=O | – | – | – | 16.8 | 35.5 | – | – | 16.5 | 32.1 | 15 | 30.6 | 15.1 | 33.6 |
| O=C1c2cc(Br)ccc2-c2c1c1ccc([N+](=O)[O-])cc1c(=O)n2CCCCl | – | – | – | 0.489 | 6.12 | – | – | 12.9 | > 96.1 | 0.0849 | 20.1 | < 0.01 | > 44 |
| CC1CC(c2ccccc2)=Nc2ccccc2S1(=O)=O (configuration not stated) | 28.4 | 30 | 30.5 | – | – | – | – | – | – | – | – | – | – |
| Cc1nn(C(=O)c2ccccc2O)c2c1C(c1ccccc1)SC(N)=N2 (configuration not stated) | – | – | – | – | > 10 | – | > 10 | – | > 10 | – | > 10 | – | > 10 |
| COc1ccc(/C=C/c2cc(OC)c(OC)c(OC)c2)cc1NC(=O)/C=C/c1ccc(F)cc1 | – | – | – | – | – | – | – | 5.8 | > 100 | 4.05 | > 40.5 | 3.34 | > 100 |
| CC1(C)C=CC[C@]2(C)[C@H]3CC[C@@H]4[C@H]5[C@H](C(=O)/C=C/c6cccnc6)CC[C@]5(CO)CC[C@@]4(C)[C@]3(C)CC[C@@H]12 | – | – | – | 1.32 | 2.64 | – | – | 1.27 | 2.67 | 1.36 | 2.69 | – | – |
| COc1ccc(NC(=O)C2C(=O)N(c3ccc(OC)cc3)C(=O)/C2=N/O)cc1 (configuration not stated) | > 100 | 44.4 | 61.1 | – | – | – | – | – | – | – | – | – | – |
| COc1cc2nc(-c3ccc(C(F)(F)F)cc3)cc(OCCCN3CCOCC3)c2cc1OC | – | – | – | 1.2 | 3.57 | – | – | 0.498 | 4.51 | 10.1 | 24 | 1.55 | 11.7 |
| CCN(CC)CCC1CC/C(=C\c2ccc(OC)cc2)C1=O (configuration not stated) | > 100 | > 100 | > 100 | – | – | – | – | – | – | – | – | – | – |
| CC(=O)NC(CCCCNC(=O)OCc1ccccc1)C(=O)NCc1ccccc1 (configuration not stated) | > 100 | – | > 100 | – | – | – | – | – | – | – | – | – | – |
| Nc1nc(-c2cccc([N+](=O)[O-])c2)c(Br)c(=O)[nH]1 | – | – | – | – | > 100 | – | – | – | > 100 | – | > 100 | – | > 65.3 |
| CC1=CSC2=NC(c3ccc(Cl)c(Cl)c3)=CC(c3ccc(Cl)cc3)N12 (configuration not stated) | – | – | – | > 100 | > 100 | – | – | > 100 | > 100 | > 100 | > 100 | > 100 | > 100 |
| COc1cc(-c2cc(=O)c3cc4c(cc3[nH]2)OCO4)cc(OC)c1OC | > 100 | > 100 | > 100 | – | – | – | – | – | – | – | – | – | – |
| Cc1c(CCCl)c(=O)n2c([nH]c3ccccc32)c1C#N | – | – | – | – | 4.05 | – | 3.33 | – | 3.09 | – | 5.63 | – | > 10 |
| COc1cc(-c2cnn(C)c2)ccc1Nc1ncc2ccnc(N[C@@H](C)C(C)(C)C)c2n1 | – | – | – | > 75.1 | > 100 | – | – | 13.4 | > 100 | > 100 | > 100 | > 63.1 | > 100 |
| COc1cc([C@H](C)c2ccc3ccccc3c2)cc(OC)c1OC | – | – | – | – | – | – | – | 0.877 | 70.9 | 0.494 | > 100 | – | – |
| Cc1cc(S(=O)(=O)Nc2nc(N)nc(N3N=CCC3C)n2)c(S)cc1Cl (configuration not stated) | – | – | – | – | – | – | > 10 | – | – | – | > 10 | – | > 10 |
| CCCCNc1nc(NC(C)(C)C)nc(NC(C)(C)C)n1 | – | – | – | 31.8 | > 100 | – | – | 2.27 | 34.8 | 8.82 | > 100 | 9.94 | > 100 |
| Cc1cc(/C=C2\SC(=Nc3ccccc3)N(C3CCCC3)C2=O)c(C)n1-c1ccc(Cl)cc1 | – | – | – | > 100 | > 100 | – | – | > 100 | > 100 | > 100 | > 100 | > 100 | > 100 |
| O=c1ccn(C2OC(CO)C(O)C2O)c(=O)[nH]1 (configuration not stated) | – | – | – | > 1000 | > 1000 | > 1000 | > 1000 | – | > 1000 | – | > 1000 | > 1000 | > 1000 |
| O=C(Nc1ccc(Cl)cc1)Nc1ccc(Cl)c(Cl)c1 | – | – | – | 3.4 | > 100 | – | – | 2.34 | 7.65 | 4.08 | > 100 | 2.27 | 8.9 |
| COc1ccc2c(c1)sc1nc(-c3ccccc3)c(-c3ccsc3)n12 | – | – | – | – | – | – | – | 5.46 | > 100 | 3.45 | > 100 | 3.78 | > 100 |
| COc1cc(/C=C/c2cc(C(F)(F)F)[nH]c(=O)n2)ccc1OCc1ccccc1F | – | – | – | 3.77 | 17 | – | – | 13.1 | 53 | 9.8 | 23.3 | 4.13 | 17.3 |
| O=c1oc2ccccc2c(O)c1/C=N\c1nc(-c2ccccc2)cs1 | – | – | – | – | 20.6 | – | 16 | – | 54.8 | – | 30.8 | – | 14.1 |
| CN1CCN(Cc2ccc(NC(=O)c3cncc(C#Cc4cnc(N)c5ccc(F)cc45)c3)cc2C(F)(F)F)CC1 | – | – | – | 1.24 | 4.99 | – | – | 0.936 | 3.66 | 1.25 | 5.01 | 1.27 | 5.43 |
| COc1ccc(-c2c(C3=NCCN3)nnn2-c2ccccc2)cc1 | > 100 | > 100 | > 100 | – | – | – | – | – | – | – | – | – | – |
